Source: US10111871B2, “Nanoparticle drug delivery system and method of treating cancer and neurotrauma” (Northeastern University, priority 2013, dated 2018)

How the values were obtained:
PC3 [1] = assay: Delayed viability assay after radiosensitization (modified clonogenic assay); type: cell-based, human
Method: In vitro characterization of NanoOlaparib: For in vitro studies we used PTEN deficient human prostate cancer cell lines PC3 (ATCC), LNCaP (ATCC) and mouse cell line FKO1. […] Briefly, a complete media was formulated by adding 10% Fetal Bovine Serum from HyClone (FBS) to F12-k (PC3), RPMI (LNCaP) and DMEM supplemented with growth factors such as Bovine Pituitary Extract, (Life Technologies cat #: 13028014), final conc. 25ug/ml, Insulin, (Sigma Aldrich Cat#:16634-50 mg), final conc. 5ug/ml, EGF (Life Technologies Cat#:PHG0311), final conc 6 ng/ml (FKO1). The FKO1 cells were grown on collagen-coated plates (VWR Cat#: 47743-656). CellTiter-Glo® luminescent cell viability reagent was ordered from Promega, CA Cat # G7570. […]
(§1) Delayed viability assay after radiosensitization: Based on several studies, we modified the general clonogenic assay protocol to determine the long term effects of radio-sensitization with olaparib and NanoOlaparib (42, 43). The percent cell viability was determined using the modified clonogenic assay at 2 Gy and 4 Gy doses. […] The cell density was determined using automated cell counter and 10,000 and 20,000 cells from each treatment group was calculated and seeded in fresh 6 well plates. […] The stain was then dissolved in acetic acid to quantify the effect of Olaparib and NanoOlaparib treatments for all the cell lines.

PC3 [2] = assay: Synergism with irradiation, combination index by CalcuSyn; type: cell-based, human; conditions: PC3, 20 μM with irradiation
Method: Determination of Synergism using CalcuSyn: The fraction of cells affected (Fa) in response to Olaparib and Nanoolaparib treatment was determined as discussed in above sections. The fraction of cells affected by irradiation alone and the combination therapy was determined by the delayed cell viability assay and these values were utilized to perform synergyism analysis. A non-constant ratio combination design as formulated by CalcuSyn (Biosoft) based on the Chou-Talalay isobologram equation was used to calculate the Combination index (44). All the cells were exposed to 20 μM Olaparib or NanoOlaparib with increasing doses of Irradiation. The CI values were generated from isobolograms. All assays were performed in duplicates. Bars represent the Combination index (CI) of Olaparib and Nanoolaparib on LNCaP, PC3 and FKO1 in combinations with irradiation. The CI values generated for all the treatment groups are reported in the bar graphs are derived from duplicate experiments. The extent of synergism is postulated as indicated by the Chou-Talalay method.

LNCaP cells = assay: Nuclear PARP cleavage assay by confocal microscopy; type: cell-based, human
Description: (§2) Irradiation for in vitro studies: Radiation was delivered using the Small Animal Radiation Research Platform (SARRP) at DFCI, a gantry mounted x-ray tube and flat panel imager capable of fixed field irradiation, rotation therapy and cone-beam CT (CBCT) imaging. […] Here the radiation doses were optimized to 2 Gy (5.6 Gy/min for 22 sec) and 4 Gy (5.5 Gy/min for 44 sec) to irradiate the cells, which were pretreated with Olaparib/NanoOlaparib for 24 hrs.
(§3) Nuclear localization and early DNA damage determination: To assess the early DNA Damage and PARP inhibition pathway damage, including PARP, PARylation, PARP cleavage and yH2AX in the cell lines to various treatment conditions, the prostate cancer cell lines were seeded at 100,000 cells, exposed to 20 μM Olaparib/NanoOlaparib, with and without radiation for both immunoflorescence (confocal) and western blotting assays. PARP-1 is a 116 kDa nuclear protein which is strongly activated by DNA strand breaks. During apoptosis, proteins such as caspase-3 and -7, cleave the PARP to yield an 85 kDa and a 25 kDa fragment. The nuclear localization and extent of apoptosis was determined using nuclear PARP cleavage assay and western blotting was used to determine the relative cellular concentrations of PARP, PAR, and yH2AX for various treatments on all the cell lines. Briefly, 105 cells/well were seeded in a 6 well plate on sterile coverslips for 24 hours before adding the drugs. The cells were incubated with the drugs for either 4 hr s after which they were irradiated. The cells thus treated were incubated at 37° C. for 1 hour before fixing them for further analysis.
(§4) Nuclear PARP Cleavage assay using confocal microscopy: The cells were fixed with 1% formalin and kept at 37° C. for 15 min. The coverslips were given three PBS washings (3 min each) until the cells were free of fixing agent. The cells were rehydrated using PBS with 0.5% tween 80 for 30 min, washed with buffer and incubated with Anti-PARP Cleavage Site (214/215) specific antibody, FITC Conjugate (Life technologies, NY, Cat #44-699) for 1 hour. This antibody specifically recognizes the 85 kDa fragment of cleaved PARP and can be used as a marker for detecting apoptotic cells. The coverslips were washed twice and were mounted onto the glass slide using and the edges were sealed using nail polish. The images were taken using an Olympus FV1000, multi-photon confocal microscope (Olympus America, Inc., Central Valley, Calif.). The excitation filters used for imaging cleaved PARP (FITC) and DAPI were Ex-488, 405 respectively. The emission filters were set at 530, 458 nm for FITC and DAPI respectively. All the images were captured with a 60× objective. […] Statistical significance was analyzed using two way ANOVA and Dunnet's multiple comparison tests in Graph Pad Prism.

PC3 cells = assay: Nuclear PARP cleavage assay by confocal microscopy; type: cell-based, human; conditions: PC3, DAPI
Description: as §2, §3, §4

FKO1 cells = assay: Nuclear PARP cleavage assay by confocal microscopy; type: cell-based, mouse; conditions: FKO1, DAPI
Description: as §2
Nuclear localization and early DNA damage determination: To assess the early DNA Damage and PARP inhibition pathway damage, including PARP, PARylation, PARP cleavage and yH2AX in the cell lines to various treatment conditions, the prostate cancer cell lines were seeded at 100,000 cells, exposed to 20 μM Olaparib/NanoOlaparib, with and without radiation for both immunoflorescence (confocal) and western blotting assays. […] The nuclear localization and extent of apoptosis was determined using nuclear PARP cleavage assay and western blotting was used to determine the relative cellular concentrations of PARP, PAR, and yH2AX for various treatments on all the cell lines. […]
Nuclear PARP Cleavage assay using confocal microscopy: The cells were fixed with 1% formalin and kept at 37° C. for 15 min. […] Statistical significance was analyzed using two way ANOVA and Dunnet's multiple comparison tests in Graph Pad Prism.

[3] = HPLC analysis of encapsulated Olaparib (loading efficiency); type: physicochemical; conditions: across the batches
Method: HPLC analysis: The concentration of Olaparib encapsulated was determined using HPLC. The mobile phase was optimized to be methanol: water (64:36) run on a reverse phase C18 column (SUPELCO™), and the Olaparib was detected at 207 nm. All the doses used in the following studies were derived from the standard curve obtained using a working range of serially diluted Olaparib solutions in mobile phases as described above. The loading efficiency across the batches was around 80-90%.

FKO1 = assay: Delayed viability assay after radiosensitization (modified clonogenic assay); type: cell-based, mouse
Method: In vitro characterization of NanoOlaparib: For in vitro studies we used PTEN deficient human prostate cancer cell lines PC3 (ATCC), LNCaP (ATCC) and mouse cell line FKO1. […] Briefly, a complete media was formulated by adding 10% Fetal Bovine Serum from HyClone (FBS) to F12-k (PC3), RPMI (LNCaP) and DMEM supplemented with growth factors such as Bovine Pituitary Extract, (Life Technologies cat #: 13028014), final conc. 25ug/ml, Insulin, (Sigma Aldrich Cat#:16634-50 mg), final conc. 5ug/ml, EGF (Life Technologies Cat#:PHG0311), final conc 6 ng/ml (FKO1). The FKO1 cells were grown on collagen-coated plates (VWR Cat#: 47743-656). CellTiter-Glo® luminescent cell viability reagent was ordered from Promega, CA Cat # G7570. Clonogenic assay kit was bought from BioPioneer, CA, Cat # CODE: CA-001.
as §2
as §1, with “doses. Irradiation was carried out in prostate cancer cell lines, LNCaP PC3 and FKO1 as described above.” for “doses.”

loading efficiency [3]: 80-90%
SMILES: O=C(c1cc(Cc2n[nH]c(=O)c3ccccc23)ccc1F)N1CCN(C(=O)C2CC2)CC1 [Olaparib, 4-(3-(1-(cyclopropanecarbonyl)piperazine-4-carbonyl)-4-fluorobenzyl)phthalazin-1(2H)-one]
cell death (PC3 [1]; PC3, 20 uM with 2 Gy): 80%
cell death, monotherapy (PC3 [1]; PC3, 20 uM, no irradiation): 78%
combinatorial effect of drug and irradiation (CI) (PC3 [2]): additive effect
location of cleaved PARP (LNCaP cells; 1 hr post irradiation): predominantly found in the perinuclear region
increase in nuclear area (LNCaP cells; DAPI, 20 μM): 3 fold
increase in cleaved PARP upon monotherapy (LNCaP cells; no irradiation, 20 μM): 20 fold
change in nuclear size (PC3 cells): No significant change
change in nuclear size (FKO1 cells): No significant change
cell kill (FKO1; FKO1, 20 uM combined with 4 Gy radiation): 82%
cell death (FKO1; FKO1, 20 uM with 2 Gy): 68%
cell death, monotherapy (FKO1; FKO1, 20 uM, no irradiation): 53%
